Reference: ChEMBL document CHEMBL5042492, “Noncovalent CDK12/13 dual inhibitors-based PROTACs degrade CDK12-Cyclin K complex and induce synthetic lethality with PARP inhibitor” (Eur J Med Chem, 2022)
The source made the active and inactive calls. No cut-off for these calls is given here.

Columns and labels:
CDK12/Cyclin K = CDK12/Cyclin K (Homo sapiens, UniProt Q9NYV4); assay: Inhibition of human CDK12 (696 to 1082 residues) /cyclinK (1 to 300 residues) using ac-YSPTSPpSYSPTSFpS-YSPTSPpSY-[PEG2]-RR-amid peptide as substrate in presence of ATP measured after 2 hrs by ADP-Glo kinase assay; type: protein-complex assay
[1] = target: T1, Protein cereblon/Cyclin-K/Cyclin-dependent kinase 12 (Homo sapiens, UniProt O75909+Q9NYV4+Q96SW2); assay: Protac activity at human CRBN/CDK12/CycK in human Bel-7402 cells assessed as RNAP2 CTD Ser2 phosphorylation level at 0.1 to 30 uM measured after 24 hrs by Western blotting assay; type: cell-based; settings: dose 0.1-30 µM
[2] = target: T1, Protein cereblon/Cyclin-K/Cyclin-dependent kinase 12; assay: Protac activity at human CRBN/CDK12/CycK in human MDA-MB-231 cells assessed as RNAP2 CTD Ser2 phosphorylation level at 0.1 to 30 uM measured after 24 hrs by Western blotting assay; type: cell-based; settings: dose 0.1-30 µM
[3] = target: T1, Protein cereblon/Cyclin-K/Cyclin-dependent kinase 12; assay: Protac activity at human CRBN/CDK12/CycK in human Bel-7402 cells assessed as downregulation of Mcl-1 level upto 30 uM measured after 24 hrs by Western blotting assay; type: cell-based; settings: dose microM <=30, time 24.0 hrs
[4] = target: T1, Protein cereblon/Cyclin-K/Cyclin-dependent kinase 12; assay: Protac activity at human CRBN/CDK12/CycK in human MDA-MB-231 cells assessed as downregulation of Mcl-1 level upto 30 uM measured after 24 hrs by Western blotting assay; type: cell-based; settings: dose microM <=30, time 24.0 hrs

T1 sequence (O75909 whole entry, looked up): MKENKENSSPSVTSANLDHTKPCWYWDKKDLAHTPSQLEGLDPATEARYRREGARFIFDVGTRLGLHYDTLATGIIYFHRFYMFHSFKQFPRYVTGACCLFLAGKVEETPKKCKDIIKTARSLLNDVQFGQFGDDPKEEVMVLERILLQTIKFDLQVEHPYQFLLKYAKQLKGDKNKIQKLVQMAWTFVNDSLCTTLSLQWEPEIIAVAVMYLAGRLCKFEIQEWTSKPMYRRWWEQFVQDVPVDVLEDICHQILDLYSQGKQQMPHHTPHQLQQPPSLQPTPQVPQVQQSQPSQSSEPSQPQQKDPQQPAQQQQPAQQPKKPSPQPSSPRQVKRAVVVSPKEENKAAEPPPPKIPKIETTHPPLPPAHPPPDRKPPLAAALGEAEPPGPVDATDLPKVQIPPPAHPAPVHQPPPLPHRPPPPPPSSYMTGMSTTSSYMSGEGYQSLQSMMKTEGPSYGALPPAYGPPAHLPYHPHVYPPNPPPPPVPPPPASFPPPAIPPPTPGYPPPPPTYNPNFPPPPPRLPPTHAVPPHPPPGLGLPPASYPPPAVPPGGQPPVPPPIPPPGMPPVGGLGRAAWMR
T1 sequence (Q96SW2 whole entry, looked up): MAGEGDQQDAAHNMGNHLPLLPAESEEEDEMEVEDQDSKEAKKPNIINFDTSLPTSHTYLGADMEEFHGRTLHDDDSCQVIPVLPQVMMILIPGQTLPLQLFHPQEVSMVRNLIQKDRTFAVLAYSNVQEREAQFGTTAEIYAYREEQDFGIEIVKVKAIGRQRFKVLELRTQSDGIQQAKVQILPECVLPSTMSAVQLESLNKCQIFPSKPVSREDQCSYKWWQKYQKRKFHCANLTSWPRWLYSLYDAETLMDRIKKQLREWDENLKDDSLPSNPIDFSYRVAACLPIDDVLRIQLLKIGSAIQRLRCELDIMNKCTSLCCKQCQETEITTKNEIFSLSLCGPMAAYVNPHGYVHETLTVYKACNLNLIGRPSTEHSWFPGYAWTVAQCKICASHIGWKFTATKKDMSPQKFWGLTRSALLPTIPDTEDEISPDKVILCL
T1 sequence (Q9NYV4 whole entry, looked up): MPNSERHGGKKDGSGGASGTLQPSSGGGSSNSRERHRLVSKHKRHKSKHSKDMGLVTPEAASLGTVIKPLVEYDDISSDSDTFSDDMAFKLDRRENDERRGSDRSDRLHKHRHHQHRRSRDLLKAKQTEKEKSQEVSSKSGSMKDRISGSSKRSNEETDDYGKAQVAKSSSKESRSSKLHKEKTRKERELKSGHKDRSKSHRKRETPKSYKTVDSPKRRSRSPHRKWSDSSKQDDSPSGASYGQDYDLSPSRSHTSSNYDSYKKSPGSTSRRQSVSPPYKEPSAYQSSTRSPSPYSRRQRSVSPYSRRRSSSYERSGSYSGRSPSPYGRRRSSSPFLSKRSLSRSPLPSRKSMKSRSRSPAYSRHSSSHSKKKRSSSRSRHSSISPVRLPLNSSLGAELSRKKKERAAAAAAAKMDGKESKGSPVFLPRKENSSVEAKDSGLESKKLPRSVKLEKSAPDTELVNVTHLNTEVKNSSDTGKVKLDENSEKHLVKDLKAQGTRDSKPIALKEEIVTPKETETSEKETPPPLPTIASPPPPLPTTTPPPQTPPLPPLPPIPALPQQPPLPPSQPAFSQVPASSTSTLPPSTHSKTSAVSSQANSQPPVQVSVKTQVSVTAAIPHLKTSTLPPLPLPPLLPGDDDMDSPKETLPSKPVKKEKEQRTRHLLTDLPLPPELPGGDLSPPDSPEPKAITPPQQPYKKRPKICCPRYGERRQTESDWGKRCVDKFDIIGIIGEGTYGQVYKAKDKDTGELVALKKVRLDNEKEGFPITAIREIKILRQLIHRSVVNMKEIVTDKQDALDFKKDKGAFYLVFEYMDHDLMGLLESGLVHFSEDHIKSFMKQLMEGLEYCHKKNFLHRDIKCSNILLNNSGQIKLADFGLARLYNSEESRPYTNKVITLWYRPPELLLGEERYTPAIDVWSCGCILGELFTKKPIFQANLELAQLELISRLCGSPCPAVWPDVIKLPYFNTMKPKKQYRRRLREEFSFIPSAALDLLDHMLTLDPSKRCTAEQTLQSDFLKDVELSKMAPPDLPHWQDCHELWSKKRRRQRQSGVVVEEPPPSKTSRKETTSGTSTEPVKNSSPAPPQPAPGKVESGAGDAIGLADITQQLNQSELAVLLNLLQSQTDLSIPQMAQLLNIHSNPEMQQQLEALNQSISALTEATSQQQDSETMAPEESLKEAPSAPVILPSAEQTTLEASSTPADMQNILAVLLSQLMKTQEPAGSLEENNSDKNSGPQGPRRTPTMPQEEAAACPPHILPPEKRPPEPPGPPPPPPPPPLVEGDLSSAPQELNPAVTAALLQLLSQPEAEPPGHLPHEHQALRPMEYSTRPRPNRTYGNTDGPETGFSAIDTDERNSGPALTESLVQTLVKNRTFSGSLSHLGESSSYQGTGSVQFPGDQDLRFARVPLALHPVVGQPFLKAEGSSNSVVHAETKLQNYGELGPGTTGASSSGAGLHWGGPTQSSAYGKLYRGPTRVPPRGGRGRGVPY
CDK12/Cyclin K, sequence (O75909 whole entry, the tested form may be a part): as the sequence (O75909 whole entry, looked up) above
CDK12/Cyclin K, sequence (Q9NYV4 whole entry, the tested form may be a part): as the sequence (Q9NYV4 whole entry, looked up) above

| Structure (SMILES) | IC50 (CDK12/Cyclin K) | Activity [1] | Activity [2] | Activity [3] | Activity [4] |
| --- | --- | --- | --- | --- | --- |
| COCCOCCOc1cc2[nH]c(CNc3nc(N4CCOCC4)nc4c3ncn4C(C)C)nc2cc1F | 237 nM | – | – | – | – |
| COCCOCCOc1cc2[nH]c(CNc3nc(OCC[C@@H]4CCCCN4)nc4c3ncn4C(C)C)nc2cc1F | 66.4 nM | – | – | – | – |
| CN(C)C/C=C/C(=O)Nc1ccc(C(=O)N2CCC[C@@H](Nc3ncc(Cl)c(-c4c[nH]c5ccccc45)n3)C2)cc1 | – | Active | Active | Active | Active |
